Here are results for eight compounds from article PMC12592502, “Unraveling the mechanisms behind the enhanced efficacy of β-lactam-based sideromycins” (Communications Biology, 2025).

In brackets after ≈: the same amount, converted by molar mass. Where two headings read alike, the source gives them in different places.

One series relates to P. aeruginosa ATCC 27853. The series is described as follows: MIC, broth microdilution (CLSI). Conditions: MHBCA; for MIC in combination with PAβN (control antibiotics): + 25 µg/mL PAβN. In kind it is cell-based, Pseudomonas aeruginosa. Here is the method:
(§1) All bacterial strains (see description and sources Table S1) were stored at −80 °C, and grown on tryptone soya agar (TSA) at 35 °C. The iron-deprived (ID)-MHBCA (cation-adjusted Muller-Hinton Broth, Becton Dickinson, Mississauga, ON, Canada) medium was prepared as reported by refs. [21],[50]. Briefly, MHBCA was treated with 10% Chelex® 50-100 mesh (Sigma) and stirred for 6 h at room temperature. The resin was removed by filtration. Divalent Ca^2+ (CaCl2), Mg^2+ (MgCl2), and Zn^2+(ZnSO4), were then added in the iron-depleted medium at 22, 12, and 1 μg/ml respectively. Finally, the pH was adjusted to 7.3, and the medium was sterilized with a 0.2-μm filter. Regular MHBCA (i.e., not treated with Chelex®) was used to compare the inhibitory activity of conjugates in iron-sufficient conditions.
(§2) Minimal inhibitory concentrations (MICs) were performed using a broth microdilution technique according to the Clinical and Laboratory Standards Institute (CLSI) guidelines. MICs were determined in MHBCA and in ID-MHBCA. To check the impact of β-lactamases, MICs in the presence of a β-lactamase inhibitor were also determined. The inhibitor was homogenized at 2X the final concentration and added to the bacterial inoculum just before distributing cells into the wells containing the drug dilutions. The final concentration of each inhibitor was 4 μg/mL for clavulanic acid (tested against K. pneumoniae) and 200 μg/mL for 3-aminophenylboronic acid (tested against P. aeruginosa and A. baumannii).
(In general: Dilution methods test growth across graded concentrations, often in twofold steps.)

In the next series the test system is E. coli MC4100. The series is described as follows: MIC. Conditions: MC4100, MHBCA. In kind it is cell-based, Escherichia coli. How it is done: as §1, §2
For a further series, the system named is E. coli ΔacrAB. In words: MIC, efflux pump mutant. In kind it is cell-based, Escherichia coli. Here is the method: as §2
Series [1] relates to P. aeruginosa 1625 ΔmexAB-oprM, ΔmexEF-oprN. The series is described as follows: MIC, efflux pump mutant. Conditions: Pseudomonas aeruginosa. Type of series: cell-based, Pseudomonas aeruginosa. Here is the method: as §2
The subject of series [2] is P. aeruginosa 2302 MexAB, MexCD, MexEF upregulated. In words: MIC, efflux pump overexpressing strain. Type of series: cell-based, Pseudomonas aeruginosa. Conditions: Pseudomonas aeruginosa. How it is done: as §2
In the next series the target is AmpC (PDC-5) (Pseudomonas aeruginosa, UniProt P24735, R79Q/T105A). The series is described as follows: biochemical. The note with it: n = 2. Type of series: biochemical, P. aeruginosa ATCC 27853. How it is done:
The purification of AmpC from the culture supernatant obtained above was conducted as described in the Catwright and Waley protocol[52] using an Affi-gel 10 matrix (Bio-Rad, Hercules, CA, USA) loaded in a column (G-Bioscience, St-Louis, MO, USA). First, the resin was washed with cold deionized water. The resin was then collected and mixed with 20 mL of the 3-aminophenylboronic acid solution (1 M KHCO3 containing 2 g of 3-aminophenyl boronic acid and 2 g of sorbitol) at 4 °C for 1 h, and the pH was maintained at 8 with solid KHCO3. The mixture was loaded onto the column and washed with 10 column volumes of 1 M NaCl/0.5 M sorbitol (pH 7), followed by 10 column volumes of 0.5 M borate (pH 7), and then 10 column volumes of the loading buffer (20 mM triethanolamine HCl/0.5 M NaCl, pH 7). The sample was dialyzed in the loading buffer before being loaded onto the column. The column was washed with the loading buffer until no absorbance was measured at OD280. AmpC was eluted in fractions of 1 mL with 0.5 M borate/0.5 M NaCl pH 7. […] The purity was visualized on a 10% bis-acrylamide gel. Only pure fractions showing a single band at 40 kDa were pooled together and then dialyzed at 4 °C in a KP buffer 0.05 M pH 7 (see Fig. S2). The protein concentration was determined with a Bradford protein reagent (Bio-Rad).
(§3) Enzyme concentrations were 20 nM for AmpC and SHV-1, and 50 nM for OXA-98. Quartz cuvette (FireflySci Inc., Northport, NY) with 1 cm length path and 2 mm inside width was used with an Ultrospec 2100 Pro (Biochrom, Harvard Bioscience Inc., USA) to acquire the kinetic measures. […] The following extinction coefficients (Δε) and wavelengths (λ) were used:
(§4) The steady-state parameters (Km and Kcat) were determined by plotting the initial velocity against substrate concentrations (Michaelis–Menten curve). The Kcat was measured using the Vmax (μM/sec) divided by the total enzyme concentration and the catalytic efficiency was further calculated (Kcat/Km). SHV-1 parameters were determined with three Michaelis–Menten curves of at least seven substrate concentrations, while OXA-98 and AmpC were duplicates of curves of at least seven substrate concentrations. […] Initial velocities were measured at room temperature (25 °C). The Vmax and Km were calculated using least squares fit regression in GraphPad version 10.2.2. Ki was measured using a derivative of IC50 with an adaptation of the Cheng–Prusoff equation[55]. […] The corrected Ki was calculated using this formula: Kicorrected=Ki(observed)/1+S/KmNCF

For the next series, the system named is A. baumannii ATCC 19606. In words: MIC, broth microdilution (CLSI). Type of series: cell-based, Acinetobacter baumannii. Conditions: MHBCA. Here is the method: as §1, with “conditions. The resin used for Chelex treatment was always fresh and had never been regenerated, ensuring consistent iron removal.” for “conditions.”
as §2

Another series has as its system E. coli lptD4213. In words: MIC, hyperpermeable mutant. The note with it: lptD4213, MHBCA (+). Type of series: cell-based, Escherichia coli. How it is done: as §1, with “conditions. The resin used for Chelex treatment was always fresh and had never been regenerated, ensuring consistent iron removal.” for “conditions.”
as §2

In the next series the test system is E. coli PBP3. Further details: method as in PMID 29061741. The note with it: cited from earlier work.
Series [3] has as its system CC1(C)S[C@@H]2[C@H](NC(=O)[C@H](N)c3ccccc3)C(=O)N2[C@H]1C(=O)O. The series is described as follows: purified protein, by the assay type. In kind it is biochemical, A. baumannii ATCC 19606. The note with it: other: 20 mM NaHCO3 added, NH = no hydrolysis detected, pH 7.0. Here is the method: as §3, §4
Series [4] has as its system O=C(Cc1cccs1)N[C@@H]1C(=O)N2C(C(=O)O)=C(/C=C/c3ccc([N+](=O)[O-])cc3[N+](=O)[O-])CS[C@H]12. The series is described as follows: purified protein, by the assay type. In kind it is biochemical, A. baumannii ATCC 19606. The note with it: other: 20 mM NaHCO3 added, NH = no hydrolysis detected, pH 7.0. How it is done: as §3, §4
For series [5], the system named is CC1(C)S[C@@H]2[C@H](NC(=O)[C@H](N)c3ccccc3)C(=O)N2[C@H]1C(=O)O. In words: purified protein, by the assay type. Conditions: other: Michaelis–Menten curves, n = 3, 25 °C, pH 7.0.
The subject of series [6] is O=C(Cc1cccs1)N[C@@H]1C(=O)N2C(C(=O)O)=C(/C=C/c3ccc([N+](=O)[O-])cc3[N+](=O)[O-])CS[C@H]12. In words: purified protein, by the assay type. The note with it: other: Michaelis–Menten curves, n = 3, 25 °C, pH 7.0.

Sequence of AmpC (PDC-5) (P24735 27-397 R79Q/T105A): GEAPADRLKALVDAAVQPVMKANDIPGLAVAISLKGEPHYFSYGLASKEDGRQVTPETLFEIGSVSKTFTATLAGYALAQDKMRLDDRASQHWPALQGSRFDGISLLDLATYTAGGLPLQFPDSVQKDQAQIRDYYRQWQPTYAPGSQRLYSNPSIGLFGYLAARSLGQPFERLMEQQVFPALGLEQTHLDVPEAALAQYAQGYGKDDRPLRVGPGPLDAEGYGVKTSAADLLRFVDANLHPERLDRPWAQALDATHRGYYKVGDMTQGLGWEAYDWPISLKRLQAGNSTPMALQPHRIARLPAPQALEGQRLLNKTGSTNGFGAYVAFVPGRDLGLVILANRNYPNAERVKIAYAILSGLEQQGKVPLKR

In the case of `CC[C@H]1OC(=O)[C@H](C)[C@@H](O[C@H]2C[C@@](C)(OC)[C@@H](O)[C@H](C)O2)[C@H](C)[C@@H](O[C@@H]2O[C@H](C)C[C@H](N(C)C)[C@H]2O)[C@](C)(O)C[C@@H](C)C(=O)[C@H](C)[C@@H](O)[C@]1(C)O` [ERY, erythromycin], the “MIC in combination with PAβN (control antibiotics)” value in the series on P. aeruginosa ATCC 27853 came out at 32 mg/L; with E. coli MC4100 (+ 25 µg/mL PAβN), 16 mg/L. Moreover, the MIC (usually the least concentration at which growth counts as inhibited) in the series on E. coli ΔacrAB (Escherichia coli) came to 4 µM (≈ 2.94 µg/mL). The “MIC (control antibiotic)” value against E. coli ΔacrAB (deletion of acrAB) came out at 4 mg/L (≈ 5.45 µM). The “reduction of MIC by deletion of acrAB” value in the series with E. coli ΔacrAB (versus parent E. coli) was 32 fold.
Consider `C[C@H]1COc2c(N3CCN(C)CC3)c(F)cc3c(=O)c(C(=O)O)cn1c23` [LVX, levofloxacin], for which the MIC is at most 0.06 µM in series [1], at most 0.06 mg/L in series [1] (read-out: MIC (control drug)), 16 µM in series [2] and 16 mg/L in [2] (read-out: MIC (control drug)).
Regarding `O=C(Cc1cccs1)N[C@@H]1C(=O)N2C(C(=O)O)=C(/C=C/c3ccc([N+](=O)[O-])cc3[N+](=O)[O-])CS[C@H]12` [NCF, nitrocefin], the “AmpC (PDC-5) Vmax” value at AmpC (PDC-5) is 121 ± 3 µmol·mg/min. The Km – broadly, the substrate concentration at which the rate is half of its maximum – on AmpC (PDC-5) (read-out: AmpC (PDC-5) Km, Michaelis–Menten curves) stood at 103 ± 4 µM.
For `CO[C@H]1/C=C/O[C@@]2(C)Oc3c(C)c(O)c4c(O)c(c(/C=N/N5CCN(C)CC5)c(O)c4c3C2=O)NC(=O)/C(C)=C\C=C\[C@H](C)[C@H](O)[C@@H](C)[C@@H](O)[C@@H](C)[C@H](OC(C)=O)[C@@H]1C` [RIF, rifampicin, reference compound], the “MIC in combination with PAβN (control antibiotics)” value with P. aeruginosa ATCC 27853 was 2 mg/L; with A. baumannii ATCC 19606 (+ 25 µg/mL PAβN) it was at most 0.012 mg/L. Also, the “MIC (control antibiotics)” value in the series on P. aeruginosa ATCC 27853 (without PAβN) and against A. baumannii ATCC 19606 (without PAβN) was 16 mg/L (≈ 19.4 µM) each time.
As to `CN[C@H](CC(C)C)C(=O)N[C@H]1C(=O)N[C@@H](CC(N)=O)C(=O)N[C@H]2C(=O)N[C@H]3C(=O)N[C@H](C(=O)N[C@H](C(=O)O)c4cc(O)cc(O)c4-c4cc3ccc4O)[C@H](O)c3ccc(c(Cl)c3)Oc3cc2cc(c3O[C@@H]2O[C@H](CO)[C@@H](O)[C@H](O)[C@H]2O[C@H]2C[C@](C)(N)[C@H](O)[C@H](C)O2)Oc2ccc(cc2Cl)[C@H]1O` [VAN, vancomycin, reference compound], in the series on E. coli MC4100 (without PAβN), the “MIC (control antibiotics)” value is over 128 mg/L. The “MIC (control antibiotic)” value with E. coli lptD4213 turned out to be 0.5 mg/L (≈ 0.345 µM).
For the compound `CC(C)(O/N=C(\C(=O)N[C@@H]1C(=O)N2C(C(=O)[O-])=C(C[N+]3(CCNC(=O)c4ccc(O)c(O)c4Cl)CCCC3)CS[C@H]12)c1csc(N)n1)C(=O)O` [cefiderocol], the “decrease in the IC50 for E. coli PBP3 compared to ceftazidime” value in the series with E. coli PBP3 is 11 fold.
For “OXA-98 (Acinetobacter baumannii ATCC 19606 = CIP 70.34 = JCM 6841)”, in series [3], the Km worked out at 490 ± 12 µM; the kcat (as a rule, the maximal rate divided by the concentration of active sites) came out at 22 ± 1 s⁻¹; the kcat/Km – broadly, the turnover number divided by the Michaelis constant – stood at 40000 ± 0 M⁻¹ s⁻¹. In [4], the Km was 343 ± 10 µM, the kcat is 3.5 ± 0.2 s⁻¹ and the kcat/Km was 10000 ± 0 M⁻¹ s⁻¹.
In the case of SHV-1 (Klebsiella pneumoniae), in series [5], the Km stood at 164 ± 4 µM, the kcat was 1565 ± 42 s⁻¹ and the kcat/Km amounted to 9.5e+06 ± 300000 M⁻¹ s⁻¹. For the same compound, in series [6], the Km was 25 ± 3 µM, the turnover number (kcat) is 247 ± 48 s⁻¹ and the kcat/Km stood at 9.8e+06 ± 2.3e+06 M⁻¹ s⁻¹.
